Columns and labels:
[1] = Intravenous tolerability / systemic toxicity in NMRI mice; format: in vivo; conditions: mouse, in vivo, iv, injected intravenously, read-out: maximally tolerated dose (MTD)
Experimental: (§1) The compound of the invention (compound 11) was injected intravenously in NMRI mice. […] The compound was rapidly distributed and finally eliminated with a half-life of 4˜5 h. The systemic toxicity of the compound of the invention is low.

NMRI mice = assay: as above; format: in vivo
Experimental: as §1

[2] = Plasma pharmacokinetics after intravenous injection in NMRI mice; format: in vivo
Experimental: as §1

[3] = Stability studies at room temperature in 5% aqueous mannitol; format: physicochemical; conditions: dihydrochloride/ethanol complex, storage for 100 h
Experimental: Stability studies at room temperature were conducted with from 0.1 mg/L to 15 mg/L of the dihydrochloride/ethanol complex in 5% aqueous mannitol (to provide for isotonicity). […] For instance, about 2.5% compound 11 is degraded after storage for 100 h of a solution comprising 15 mg compound per liter, while about 5% of the compound is degraded in a solution comprising 2 mg compound per liter, and about 13 of the compound in a solution comprising 0.1 mg compound per liter.

## C/C(=N/Nc1ccc2c(n1)[nH]c1c(C)cccc12)c1ccccn1 [compound 11, 2-[(1Z)-1-(2-{8-Methyl-8H, 8aH, 9H-pyrido[2,3-b]indol-2-yl}hydrazin-1-ylidene)ethyl]-pyridine]
[1]
  MTD: 16 mg/kg
NMRI mice; doses up to 4.5 mg/kg
  changes in plasma parameters (liver ALT, blood glucose, total protein): did not produce noteworthy changes
  effect on the animals' weight gain: nor did they prevent the animals from gaining weight
NMRI mice; intravenous
  systemic toxicity: low
[2]; at MTD of 16 mg/kg
  initial plasma concentration relative to the IC50 of tumor cell lines and primary patient colorectal cancer cells in vitro: > 10 fold
[2]; mouse, plasma, 16 mg/kg, NMRI mice, read-out: elimination half-life
  half-life: 4 to 5 h
[2]; mouse, plasma, at MTD of 16 mg/kg, NMRI mice, read-out: initial plasma concentration
  C0: ~100 µM
[3]; 0.1 mg compound per liter
  compound degraded: about 13
[3]; 2 mg compound per liter
  compound degraded: about 5%
[3]; 15 mg compound per liter
  compound degraded: about 2.5%
